From US20240342176A1, “PHARMACEUTICAL COMBINATION AND APPLICATION THEREOF” (GUANGZHOU JOYO PHARMATECH CO., LTD, priority 2021, published 2024)

What was measured:
[1] = tested on: human Treg cells; assay: In vitro pharmacodynamic experiment on human Treg cells (flow cytometry CD4, CD25, Foxp3); type: cell-based; details: for IC50: Homo sapiens, 120 h, five days of compound incubation, CD4, CD25, Foxp3 positive counts vs DMSO control, read-out: IC50, inhibitory activity on human Treg cells
Protocol: • 1. Research purpose: The in vitro pharmacodynamic experiment of compound I on human Treg cells. • 2. […] Experimental methods: • 1) A 96-well cell culture plate was coated with 10 μg/mL anti-human CD3, 50 μL per well, incubated at 37° C. for three hours, and then rinsed with X-VIVO medium. • 2) Human peripheral blood mononuclear cells (purchased from Hemacare) were resuscitated and stained with CellTrace Violet (CTV). • 3) After staining, Human Naive CD4+ T cells were isolated using the Human naïve CD4 isolation kit. • 4) IL-2 (10 ng/ml), CD28 (2 μg/mL), and TGF-b (1 ng/mL) were added to the cell culture medium, and different concentrations of the test compounds were added at the same time. • 5) After five days of compound incubation, CD4, CD25, and Foxp3 were detected by flow cytometry. The positive counts of CD4, CD25, and Foxp3 were calculated, and the relative survival rate and IC50 were calculated compared with the DMSO control group. • 4. Experimental results: • The experiment used the flow cytometry method to determine the in vitro pharmacodynamic experiment of the test compound I on human Treg cells. The detection results are shown in A and B of FIG. 5 and Table 3.

[2] = target: PI3Kδ (Homo sapiens (Human), UniProt O00329); assay: ADP-Glo chemiluminescence enzymatic activity assay, PI3Kδ; type: biochemical; details: mean ± SD, N = 3, ATP 40 μM
Protocol: (§1) • 1. Research purpose: The inhibitory effect of compound I on the enzymatic activity of PI3Kδ and PI3Kγ in vitro. • 2. Experimental materials: • (1) Main instrument: Envision (PerkinElmer-2104) • (2) Main reagents: ADP-Glo kinase kit (purchased from Promega), PI3Kδ (P1108/P85a) (purchased from Millipore), and PI3Kγ (P120γ) (purchased from Millipore). • 3. Experimental methods: • 1) Preparation of buffer salt solution: A 10× buffer salt solution with a pH of 7.5 containing 500 mM HEPES, 500 mM NaCl, and 30 mM MgCl2 was prepared with ultrapure water and stored at 4° C. for later use. Before use, the above buffer salt solution was diluted to a 3.33× buffer salt solution and BSA was added to a final concentration of 0.333 mg/mL. • 2) A 100× reference compound (compound I) was prepared with a starting concentration of 100 nM, diluted in a 3-fold serial dilution to 10 concentrations and transferred to the corresponding 384 microwell plate at 50 nL/well. In the control group, 50 nL/well of DMSO was added. • 3) 3.33×PI3K solutions were prepared with the 3.33× buffer salt solution, PI3Kδ at a final concentration of 0.25 nM, PI3Kγ at a final concentration of 0.4 nM. A 3.33×PIP2:3PS solution was prepared, mixed with the enzyme solutions at a volume ratio of 1:1, and added to the 384 microwell plate in 3 μL/well. […] The luminescence value was read using Envision. • 4. […]

[3] = target: PI3Kγ (Homo sapiens (Human), UniProt P48736); assay: ADP-Glo chemiluminescence enzymatic activity assay, PI3Kγ; type: biochemical; details: mean ± SD, N = 3, ATP 25 μM
Protocol: as §1

Sequence of PI3Kδ (O00329 whole entry, looked up): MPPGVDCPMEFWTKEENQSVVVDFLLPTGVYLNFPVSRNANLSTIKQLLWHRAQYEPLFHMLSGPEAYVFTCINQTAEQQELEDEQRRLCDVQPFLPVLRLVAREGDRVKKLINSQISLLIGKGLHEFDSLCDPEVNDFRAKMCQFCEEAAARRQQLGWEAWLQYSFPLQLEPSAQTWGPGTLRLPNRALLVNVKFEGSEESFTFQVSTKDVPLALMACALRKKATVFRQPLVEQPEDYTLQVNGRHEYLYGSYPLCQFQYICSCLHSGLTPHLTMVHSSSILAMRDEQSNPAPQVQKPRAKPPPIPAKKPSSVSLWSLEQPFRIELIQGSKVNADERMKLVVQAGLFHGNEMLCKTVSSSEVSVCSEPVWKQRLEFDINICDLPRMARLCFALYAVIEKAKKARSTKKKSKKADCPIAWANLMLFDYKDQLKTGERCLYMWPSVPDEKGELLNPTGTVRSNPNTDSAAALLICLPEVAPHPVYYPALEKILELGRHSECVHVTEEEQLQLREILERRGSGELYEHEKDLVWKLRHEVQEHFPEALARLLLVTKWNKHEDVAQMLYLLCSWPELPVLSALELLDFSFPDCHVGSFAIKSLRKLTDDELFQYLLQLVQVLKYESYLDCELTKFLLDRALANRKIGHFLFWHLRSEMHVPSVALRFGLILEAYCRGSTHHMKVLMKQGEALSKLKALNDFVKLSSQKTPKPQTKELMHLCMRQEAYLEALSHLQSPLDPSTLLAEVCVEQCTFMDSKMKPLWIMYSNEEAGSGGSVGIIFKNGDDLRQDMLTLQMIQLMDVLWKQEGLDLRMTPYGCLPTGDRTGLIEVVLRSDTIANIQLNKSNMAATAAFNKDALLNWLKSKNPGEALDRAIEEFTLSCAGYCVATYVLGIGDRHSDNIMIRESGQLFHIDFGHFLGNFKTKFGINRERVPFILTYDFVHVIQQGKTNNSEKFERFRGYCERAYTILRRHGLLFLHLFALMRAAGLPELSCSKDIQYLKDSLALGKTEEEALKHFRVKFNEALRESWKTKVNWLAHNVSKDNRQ
Sequence of PI3Kδ (P27986 whole entry partner, looked up): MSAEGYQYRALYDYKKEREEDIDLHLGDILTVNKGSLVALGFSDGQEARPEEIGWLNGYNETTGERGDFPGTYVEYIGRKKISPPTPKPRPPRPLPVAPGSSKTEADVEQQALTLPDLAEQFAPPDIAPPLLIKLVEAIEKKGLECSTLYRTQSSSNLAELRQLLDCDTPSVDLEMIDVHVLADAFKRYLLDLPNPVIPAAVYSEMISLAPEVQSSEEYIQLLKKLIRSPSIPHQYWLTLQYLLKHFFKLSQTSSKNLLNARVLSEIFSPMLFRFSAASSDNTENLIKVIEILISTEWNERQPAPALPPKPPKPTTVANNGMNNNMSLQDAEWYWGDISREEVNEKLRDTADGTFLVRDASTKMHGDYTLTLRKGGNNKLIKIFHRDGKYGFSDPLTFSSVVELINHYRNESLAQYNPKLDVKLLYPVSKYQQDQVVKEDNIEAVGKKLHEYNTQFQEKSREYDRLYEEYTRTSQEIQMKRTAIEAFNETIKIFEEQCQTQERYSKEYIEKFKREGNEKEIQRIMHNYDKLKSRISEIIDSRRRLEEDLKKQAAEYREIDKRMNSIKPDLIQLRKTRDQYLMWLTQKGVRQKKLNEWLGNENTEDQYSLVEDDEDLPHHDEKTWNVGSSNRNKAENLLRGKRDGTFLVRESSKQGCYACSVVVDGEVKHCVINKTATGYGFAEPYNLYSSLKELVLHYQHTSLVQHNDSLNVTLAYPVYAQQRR
Sequence of PI3Kγ (P48736 whole entry): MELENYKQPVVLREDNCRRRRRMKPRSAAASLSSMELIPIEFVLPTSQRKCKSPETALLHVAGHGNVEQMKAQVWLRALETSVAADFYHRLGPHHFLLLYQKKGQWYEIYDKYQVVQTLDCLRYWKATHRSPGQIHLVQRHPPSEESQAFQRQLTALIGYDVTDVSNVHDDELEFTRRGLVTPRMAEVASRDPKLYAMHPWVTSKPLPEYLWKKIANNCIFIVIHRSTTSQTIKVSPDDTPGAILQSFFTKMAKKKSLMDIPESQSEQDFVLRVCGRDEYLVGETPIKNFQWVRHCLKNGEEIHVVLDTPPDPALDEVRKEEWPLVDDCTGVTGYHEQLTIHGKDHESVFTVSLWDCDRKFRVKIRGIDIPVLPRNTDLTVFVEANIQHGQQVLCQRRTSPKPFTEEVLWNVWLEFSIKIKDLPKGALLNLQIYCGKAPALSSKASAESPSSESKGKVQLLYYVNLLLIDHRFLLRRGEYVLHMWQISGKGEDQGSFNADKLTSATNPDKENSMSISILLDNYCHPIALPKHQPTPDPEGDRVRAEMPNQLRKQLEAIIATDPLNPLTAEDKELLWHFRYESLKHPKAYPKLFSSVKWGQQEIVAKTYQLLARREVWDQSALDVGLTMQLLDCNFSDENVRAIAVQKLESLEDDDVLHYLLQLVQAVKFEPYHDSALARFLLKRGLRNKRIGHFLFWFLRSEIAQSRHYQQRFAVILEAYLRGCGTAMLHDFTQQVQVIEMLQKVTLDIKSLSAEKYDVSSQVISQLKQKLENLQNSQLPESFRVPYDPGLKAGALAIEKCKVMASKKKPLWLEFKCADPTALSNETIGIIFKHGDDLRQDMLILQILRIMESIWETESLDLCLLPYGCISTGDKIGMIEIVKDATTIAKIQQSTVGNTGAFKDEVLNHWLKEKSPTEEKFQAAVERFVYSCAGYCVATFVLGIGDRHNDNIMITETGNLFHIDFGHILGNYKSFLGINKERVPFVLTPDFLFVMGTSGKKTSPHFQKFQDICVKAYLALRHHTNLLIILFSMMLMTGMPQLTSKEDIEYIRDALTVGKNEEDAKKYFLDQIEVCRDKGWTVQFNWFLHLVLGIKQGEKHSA

| IC50 [1] [pM] | IC50 [2] [pM] | IC50 [3] [pM] | Structure (SMILES) | inhibitory activity on human Treg cells relative to Idelalisib ([1]; ratio of IC50 values) [times] |
| --- | --- | --- | --- | --- |
| 10 | 180 ± 10 | 290 ± 20 | COCCOc1cnc2ccc(-c3cnc(OC)c(NS(=O)(=O)c4sc(C)nc4C)c3)cn2c1=O [Compound I] | 3172 |
| 31700 |  |  | CC[C@H](Nc1ncnc2[nH]cnc12)c1nc2cccc(F)c2c(=O)n1-c1ccccc1 [Idelalisib, reference compound] |  |
